Reference: publication PMC3388351, “Pseudolaric Acid B Induces Caspase-Dependent and Caspase-Independent Apoptosis in U87 Glioblastoma Cells” (Evidence-based Complementary and Alternative Medicine : eCAM, 2012)
One block for each compound: values may come before it.

Experiments:
U87 glioblastoma cells [1] = assay: Cell viability by MTT assay; assay type: cell-based; settings: 24 h; for IC50: read-out: IC50, growth inhibition of U87 glioblastoma cells
Procedure: U87 glioblastoma cells were obtained from American Type Culture Collection (ATCC, USA) and maintained in Dulbecco's Modified Eagle's Medium (DMEM) supplemented with 10% fatal bovine serum (FBS) in 5% CO2 at 37°C. Cells were treated with various concentrations of PLAB dissolved in DMSO with a final DMSO concentration of 1% or with DMSO alone for 24 h. DMSO-treated cells were used as control.
Cell viability was assessed by MTT assay and live/dead assay as described by us previously. Briefly U87 cells were treated with various concentrations of PLAB (1 to 100 μM) or Doxorubicin (0.25 to 20 μM) for 24 h. Following treatment, the MTT reagent was added (500 μg/mL) and cells were further incubated at 37°C for 4 h. Subsequently 150 μL DMSO was added to dissolve farmazan crystals and absorbance was measured at 570 nm in a microplate reader (Thermo Scientific). Results were expressed as the percentage of MTT reduction, assuming that the absorbance of control cells was 100%.

[2] = system: polymeric tubulin, cyclin B1, CDK1/Cdc2 in U87 glioblastoma cells; assay: Western blot of G2/M phase cell cycle regulators; assay type: cell-based; settings: 10 μM PLAB, 3 μM colchicine, 24 h
Procedure: (§1) After drug treatment, adherent and floating cells were collected and proteins were isolated as described previously. Nuclear and cytosolic proteins were extracted using cytosolic and nuclear extraction kit (Keygen, China) according to the manufacturer's instructions. 40 μg proteins were electrophoresed on 10% SDS-PAGE and transferred to PVDF membrane. After blocking with 5% (w/v) nonfat milk and washing with Tris-buffered saline-Tween solution (TBST), membranes were incubated overnight at 4°C with p53 (1 : 1000), BCL-2 (1 : 1000), Bax (1 : 300), Cytochrome c (1 : 200), Caspase-3 (1 : 500), Tubulin (1 : 500), Cyclin B1 (1 : 300), Cdc2 (1 : 300), β-actin (1 : 400), and AIF (1 : 1000) antibodies, respectively. After washing, the blots were incubated with horseradish peroxidase-conjugated goat anti-rabbit IgG or goat anti-mouse IgG or rabbit anti-goat IgG secondary antibodies (1 : 1000, Santa Cruz) for 1 h at room temperature. After washing with TBST, signals were detected using ECL plus chemiluminescence kit on X-ray film (Millipore Corporation, Billerica, USA).
Briefly the cell pellet was resuspended in 0.4 mL monomeric extraction buffer (20 mM Tris-HCl, pH 6.8, 0.14 M NaCl, 1 mM MgCl2, 1 mM EGTA, 0.5% Nonidet P-40 (NP-40), 0.5 mM PMSF, and 4 μg/mL paclitaxel), centrifuge at 12,000 ×g for 10 min and supernatant was removed. The pellets containing polymeric tubulin were resuspended in WIP cell lysis reagent (BIOSS, Beijing Biosynthesis Biotechnology Co., Ltd.) for 30 min and the supernatants (polymeric tubulins) were collected by centrifugation at 12,000 ×g for 10 min. The polymeric tubulins were subjected to Western blot analysis.

U87 glioblastoma cells [3] = assay: Nuclear morphology / DNA fragmentation by Hoechst 33258 staining; assay type: cell-based; settings: 5 and 10 μM, 24 h, Hoechst 33258, dose-dependent
Procedure: After treatment with 5 and 10 μM PLAB for 24 h, U87 cells were collected by centrifugation at 1500 rpm for 5 min, washed twice with PBS and fixed with 4% paraformaldehyde at room temperature for 30 min. After centrifugation, cells were washed with PBS, stained with Hoechst 33258 (50 μg/mL) and incubated at 37°C for 30 min. At the end of incubation, cells were washed and resuspended in PBS for the observation of nuclear morphology under fluorescence microscope (Olympus 1 × 71). At the end, 100 nuclei from control and PLAB-treated groups were counted microscopically for the percentage of cleaved nuclei.

[4] = system: p53, Bcl-2, Bax, Caspase-3, PARP, cytochrome c, AIF in U87 glioblastoma cells; assay: Western blot of apoptosis regulators; assay type: cell-based; settings: 24 h
Procedure: as §1

U87 glioblastoma cells [5] = assay: Flow cytometry analysis of apoptosis (Annexin V/PI); assay type: cell-based; settings: 24 h, in % (unit assumed)
Procedure: U87 cells were treated with 5 and 10 μM PLAB in the presence or absence of z-VAD-fmk and PFTα for 24 h. After treatment, both adherent and floating cells were collected, washed with PBS, and resuspended in 200 μL of binding buffer containing 5 μL Annexin V and put in the dark for 10 min according to the kit instructions (Beyotime, Shanghai, China). After incubation, cells were labeled with 10 μL PI and samples were immediately analyzed by flow cytometry (Beckman Coulter, Epics XL).

Kunming mice = assay: In vivo organ toxicity (liver, kidneys, body weight, serum biomarkers); parameters: species or system mouse; settings: 25 mg/kg intraperitoneally daily for 14 days
Procedure: In vivo studies were conducted on 12-14 week old Kunming mice weighing 43-45 g. The mice were maintained in a specific pathogen-free grade animal facility on a 12 h light/dark cycles at 25 ± 2°C. Mouse procedures were approved by the Experimental Animal Committee of Jilin University. Mice were divided into two groups. Group A (n = 5) administered with 50 μL DMSO intraperitoneally; Group B (n = 5) administered with PLAB (25 mg/kg body weight) in 50 μL DMSO intraperitoneally. The experiment was conducted over a period of two weeks. DMSO or drug was administered daily for 14 days, once a day. At the first and last day of the experiment, the body weight of each mouse was measured. At the end of experiment, mice were anesthetized using Pentobarbital sodium (50 mg/kg ip), blood was collected via cardiac puncture, allowed to clot for 10 min, centrifuge at 1000 ×g for 10 min at room temperature. Serum was separated and stored at -20°C until analysis. The liver and kidneys were excised and processed for hematoxylin and eosin staining followed standard procedures. The toxicological effect of PLAB on liver function was assessed by measuring the serum levels of AST, ALT and TBIL. Nephrotoxicity was determined by measuring the serum levels of BUN and Cr. These biochemical parameters were determined by an automated biochemical analyzer ([…] 7170, Japan).

U87 glioblastoma cells [6] = assay: Live/dead assay, calcein AM and PI, flow cytometry; assay type: cell-based; settings: 24 h, read-out: viability of U87 glioblastoma cells (live/dead assay)
Procedure: Furthermore, live and dead cells were quantified using the fluorescent probes calcein AM and PI. Calcein AM is cell membrane permeable and stains only viable cells, whereas PI is cell membrane impermeable and stains only dead cells. After treatment, cells were collected, washed with phosphate buffered saline (PBS) and incubated with PBS solution containing 2 μM calcein AM and 4 μM PI in the dark for 20 min at room temperature. After washing, cells were resuspended in PBS and analyzed for the fluorescence of calcein and PI by flow cytometry (Beckman Coulter, Epics XL).

U87 glioblastoma cells [7] = assay: Flow cytometry analysis of cell cycle (PI); assay type: cell-based; settings: 24 h; for cells in G2/M phase: Mean ± SEM, n = 3, control 17.63 ± 2.06
Procedure: U87 cells were treated with 5 and 10 μM PLAB for 24 h. Following treatment, cells were harvested, washed with PBS, and fixed with 70% ethanol at 4°C for overnight. After washing twice with PBS, cells were stained with a solution containing 50 μg/mL PI and 100 μg/mL RNase A for 30 min in the dark, at room temperature. The DNA contents were analyzed by flow cytometry (Beckman Coulter, Epics XL).

tumor in nude mice = settings: 15 mg/kg and 25 mg/kg; ref Wong et al. [14]; cited from earlier work

IC50 (U87 glioblastoma cells [1]): 1.8 µM
Compound: COc1cccc2c1C(=O)c1c(O)c3c(c(O)c1C2=O)C[C@@](O)(C(=O)CO)C[C@@H]3O[C@H]1C[C@H](N)[C@H](O)[C@H](C)O1 [Doxorubicin, reference compound]

Compound: COC(=O)C1=CC[C@@]23CC[C@@H]([C@@](C)(/C=C/C=C(\C)C(=O)O)OC2=O)[C@@]3(OC(C)=O)CC1 [PLAB, Pseudolaric acid B]
expression of Cdk1 (Cdc2) [2]: no change in the expression of Cdk1 (Cdc2) | expression of cyclin B1 [2]: increased the expression of cyclin B1 | expression of polymeric tubulin (tubulin polymerization) [2]: downregulated polymeric tubulin | nuclear morphological changes (U87 glioblastoma cells [3]): induced obvious nuclear morphological changes including nuclear shrinkage and DNA fragmentation | PARP cleavage [4]: cleavage of PARP into 85 kDa protein | caspase-3 cleavage [4]: cleaved the caspase-3 into 17 kDa and 12 kDa proteins | expression of Bax [4]: increased expression of Bax | expression of Bcl-2 [4]: remarkably decreased | expression of cytochrome c in cytosol ([4]; cytosolic proteins): increased the expression of cytochrome c in cytosol | expression of p53 ([4]; dose-dependent): markedly increased the expression of p53 | AIF nuclear translocation ([4]; nuclear proteins): increased the expression of AIF in nucleus dose-dependently | apoptosis rate (U87 glioblastoma cells [5]; 5 μM, Mean ± SEM, n = 3, control 2.52 ± 0.49): 24.43 ± 1.50 | apoptosis rate (U87 glioblastoma cells [5]; 10 μM PLAB with general caspase inhibitor z-VAD-fmk (20 μM)): 16.92 ± 1.30 | apoptosis rate (U87 glioblastoma cells [5]; 10 μM PLAB with p53 inhibitor PFTα (20 μM)): 33.42 ± 2.85 | apoptosis rate (U87 glioblastoma cells [5]; 10 μM, Mean ± SEM, n = 3, control 2.52 ± 0.49): 50.12 ± 3.42 | histopathological changes in liver and kidneys (Kunming mice; hematoxylin and eosin staining): No obvious morphological changes | TBIL, serum (Kunming mice; n = 5, Mean ± SEM, control 1.0 ± 0.12, n.s.): 1.2 ± 0.26 n.s. μmol/L | BUN, serum (Kunming mice; n = 5, Mean ± SEM, control 10.94 ± 3.01, n.s.): 9.45 ± 2.53 n.s. mmol/L | Cr, serum (Kunming mice; n = 5, Mean ± SEM, control 27.4 ± 2.17, n.s.): 36.5 ± 1.99 n.s. μmol/L | ALT, serum (Kunming mice; n = 5, Mean ± SEM, control 47.30 ± 3.70, n.s.): 55.45 ± 4.35 n.s. U/L | AST, serum (Kunming mice; n = 5, Mean ± SEM, control 79 ± 5.50, n.s.): 87.66 ± 4.17 n.s. U/L | change in body weight of mice (Kunming mice; versus control group): No obvious change in body weight | viability at 5 µM (U87 glioblastoma cells [6]): 74.7 ± 1.83% | viability at 10 µM (U87 glioblastoma cells [6]): 56.9 ± 3.47% | inhibition at 100 µM (U87 glioblastoma cells [1]; 100 μM, read-out: inhibition rate): > 85% | IC50 (U87 glioblastoma cells [1]): ~10 µM | cells in G2/M phase (U87 glioblastoma cells [7]; 5 μM): 42.25 ± 2.95 | cells in G2/M phase (U87 glioblastoma cells [7]; 10 μM): 67.32 ± 1.83 | effect of caspase inhibitor on PLAB-induced mitotic arrest (U87 glioblastoma cells [7]; PLAB with z-VAD-fmk (20 μM)): did not prevent mitotic arrest | growth of tumor in nude mice (tumor in nude mice): significantly inhibited the growth of tumor | toxicity / body weight loss in nude mice (tumor in nude mice): without any sign of toxicity or body weight loss
